Measurements: BindingDB's records for doi:10.1021/jm00090a012 (National Institute of Diabetes and Digestive and Kidney …, 1992)

Columns and labels:
[1] = Binding affinity against phencyclidine (PCP) receptor from guinea pig brain, using [3H]TCP as radioligand.
[2] = Binding affinity against sigma receptor from guinea pig brain, using [3H](+)-pentazocine as radioligand.
[3] = Binding affinity against sigma receptor from guinea pig brain, using [3H](+)-3-PPP as radioligand.
[4] = molecular target: Sigma non-opioid intracellular receptor 1 (Cavia porcellus) (UniProt Q60492); test: Binding affinity against sigma receptor from guinea pig brain, using [3H](+)-pentazocine as radioligand.
Sigma non-opioid intracellular receptor 1 (Cavia porcellus), sequence (Q60492 whole entry, looked up): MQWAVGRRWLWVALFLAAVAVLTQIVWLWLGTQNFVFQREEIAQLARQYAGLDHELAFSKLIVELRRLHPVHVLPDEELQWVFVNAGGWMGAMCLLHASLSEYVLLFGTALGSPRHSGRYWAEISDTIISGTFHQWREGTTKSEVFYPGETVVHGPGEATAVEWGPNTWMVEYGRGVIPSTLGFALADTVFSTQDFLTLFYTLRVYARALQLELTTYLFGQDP

Row | Compound | Ki [1] [nM] | Ki [2] [nM] | Ki [3] [nM] | Ki [4] [nM]
1 | CCCCCN1CC[C@@]2(C)c3cc(O)ccc3CC1[C@H]2C [(6R,11S)-6,11-Dimethyl-3-pentyl-1,2,3,4,5,6-hexahydro-2,6-methano-benzo[d]azocin-8-ol] | 9040 | – | – | –
2 | FCCCCCN1CCN(CCc2ccc(Cl)c(Cl)c2)CC1 | – | 0.52 | 0.86 | –
3 | FCCCN(CCc1ccc(Cl)c(Cl)c1)CCN1CCCC1 | – | – | 4.22 | –
4 | Clc1ccc(CCN2CCN(CCCI)CC2)cc1Cl | – | 1.2 | 1.3 | –
5 | FCCCN1CCN(CCc2ccc(Cl)c(Cl)c2)CC1 | – | – | – | 0.39
